We go through three compounds from PMC9282638, “A Suite of Activity-Based Probes To Dissect the KLK Activome in Drug-Resistant Prostate Cancer” (Journal of the American Chemical Society, 2021).

One assay relates to KLK2, KLK3, and KLK14. The experiment in a line: Streptavidin blotting of LNCaP-K14 conditioned media after treatment with biotinylated ABPs. The settings on record: CM of LNCaP-K14 cells, 10 nM DHT and 200 nM Dox; 1 h; concentration-dependent labeling. The assay is classed as biochemical, human. On the procedure:
With ABPs for KLK2, KLK3, and KLK14 in hand, we next addressed selective readouts of KLK activities in a complex biological system. Compounds 20, 31, and 39 were incubated with CM obtained from LNCaP-K14 cells, in which KLK14 expression has been placed under the control of a doxycycline-inducible promoter, stimulated with 10 nM DHT and 200 nM doxycycline (Dox).[15] […] In line with previous reports KLK14 appears as a double band due to protein glycosylation.[15],[39] Selective covalent modification of KLK2, KLK3, and KLK14 by 31, 20, and 39, respectively, was confirmed by streptavidin enrichment and immunoblotting (Figures S19 and S20). In the following experiments, biotinylated ABPs (bABPs) 31, 20, and 39 are named KLK2_bABP, KLK3_bABP, and KLK14_bABP, respectively.
FBS) were seeded onto the bone matrix. As a control the same number of LNCaP cells were seeded in a T175 plate lacking osteoblast cells. After 12 h, the media was aspirated, and the co-culture was incubated with serum-free RPMI media (0 % FBS and phenol red-free) for a further 48 h. After 48 h the media was collected, passed through a 0.2 μm syringe filter and stored at – 80 °C until needed. Indirect Co-culture – After 6 weeks, the media was aspirated, and the differentiated osteoblasts were incubated with serum-free RPMI media (0 % FBS and phenol red-free) for a further 48 h. After 48 h the media was collected, passed through a 0.2 μm syringe filter and then added to a T175 plate of LNCaP cells grown to 80 % confluency and hormone starved for 24 h in RPMI media supplemented with 5 % charcoal stripped FBS. […]
The protein concentration of the homogenate was measured using the DC Protein Assay (BioRad), following the manufacturer’s instructions. […]
Preparation of conditioned media: Samples of conditioned media were removed from – 80 °C storage and concentrated by centrifugation (3000 g, 10 °C) in a 3 KDa molecular weight cut-off spin filter (Amicon) for approximately 3 h. […] The protein concentration of the media was measured using the DC Protein Assay (BioRad), following the manufacturer’s instructions. […]

For assay [1], the system named is KLK activome (KLK2, KLK3, KLK14) in LNCaP-K14 cells. The experiment in a line: Residual KLK activity in conditioned media of bABP-treated LNCaP-K14 cells, read out with fABP cocktail. The assay is classed as cell-based, human. The settings on record: 1 μM bABP co-incubated with 10 nM DHT and 200 nM Dox for 48 h. An excerpt:
The data presented above provide evidence that KLK activity in PCa is regulated by the AR at a level beyond simple changes in expression and raise the possibility that KLK activities may be actionable targets for therapeutic intervention at different disease stages, in particular during PCa metastasis to bone. However, KLKs are predicted to form complex proteolytic networks and it is often not clear which protease(s) should be inhibited for maximum phenotypic response in a particular disease setting. […] To enable dissection of the PCa KLK activome directly in LNCaP cells, we further expanded the KLK probe toolbox by synthesizing KLK2_fABP (42) and KLK14_fABP (43) (Figure 6A and Figure S2), fluorescent ABP (fABP) analogues of KLK2_bABP and KLK14_bABP bearing dyes fluorescing at discrete wavelengths, which retain excellent potency and selectivity for KLK2 and KLK14, respectively (Figure S25). KLK2_fABP and KLK14_fABP were combined with KLK3-selective fABP 21 (KLK3_fABP) in an “fABP cocktail” to a final concentration of 1 μM each and incubated for 20 min with CM obtained from LNCaP-WT, LNCaP-mK14, or LNCaP-K14 cells following 48 h treatment with 10 nM DHT to enable simultaneous multicolor readout of KLK2, KLK3, and KLK14 activity. […] However, upon Dox-induced KLK14 expression in DHT-treated LNCaP-K14 cells a significant increase in the activity of all three KLKs was evident (see Figure 6B and Figure S26 for gel quantification). […] Residual KLK activity in CM was then assessed using the fABP cocktail (Figure 6B).
Figure 6 Dissecting the KLK activome in LNCaP cells. […] (B) KLK activity profiling by in-gel fluorescence of conditioned media obtained from LNCaP-WT, LNCaP-mK14, and LNCaP-K14 cells following treatment with DHT (10 nM), Dox (100 ng/mL), and the appropriate biotinylated ABP using fluorescent ABPs 20, 42 and 43. See Figure S26 for blot and gel quantification. […] Cultures were incubated for a further 24 h before the number of migrating cells was quantified.

For the compound `CCC[C@H](NC(=O)[C@H](CCC(N)=O)NC(=O)[C@H](CC(N)=O)NC(=O)CCCCCNC(=O)CCCC[C@@H]1SC[C@@H]2NC(=O)N[C@@H]21)C(=O)NC(c1ccc(C(N)=O)cc1)P(=O)(Oc1ccccc1)Oc1ccccc1` (stereo partly drawn) [compound 20], the “targets labeled (probe selectivity)” value in the assay on KLK2, KLK3, and KLK14 is “single target”. Moreover, the “effect on activity of the other KLKs” value in assay [1] was “does not affect the activity of other KLKs”.

Consider `CC(C)(C)C(NC(=O)CCCCCNC(=O)CCCCC1SCC2NC(=O)NC21)C(=O)NC(CCN)C(=O)NC(Cc1ccc(O)cc1)C(=O)NC(c1ccc(NC(=N)N)cc1)P(=O)(Oc1ccccc1)Oc1ccccc1` (stereo not drawn) [compound 31, Tle-Dab-Tyr-Arg], for which the “targets labeled (probe selectivity)” value in the assay on KLK2, KLK3, and KLK14 is given as “single target”. In addition, in assay [1], the “effect on activity of the other KLKs” value is given as “does not affect the activity of other KLKs”.

`CCC(NC(=O)C(CCN)NC(=O)C(Cc1ccc2ccccc2c1)NC(=O)CCCCCNC(=O)CCCCC1SCC2NC(=O)NC21)C(=O)NC(c1ccc(NC(=N)N)cc1)P(=O)(Oc1ccccc1)Oc1ccccc1` (stereo not drawn) [compound 39, 2Nal-Dab-Abu-Arg]: the “targets labeled (probe selectivity)” value with KLK2, KLK3, and KLK14 was “single target”. In addition, the “effect on activity of the other KLKs” value in assay [1] is “significant decrease”.
